# Assay results: paper PMC6920794, “Evaluation of Novel Chalcone-Thiosemicarbazones Derivatives as Potential Anti-Leishmania amazonensis Agents and Its HSA Binding Studies” (Biomolecules, 2019)
# What was measured:
# [1] = tested on: murine peritoneal macrophages; assay: Macrophage cytotoxicity (resazurin); assay type: cell-based
# Experimental: Peritoneal macrophages from albino laboratory-bred strain (BALB/c) mice were obtained in RPMI 1640 medium at pH 7.2 (Gibco, New York, NY, USA) supplemented with 10% (v/v) heat-inactivated fetal bovine serum, 100 U/mL penicillin and 0.1 mg/mL of streptomycin and distributed (1 × 10^6 macrophages/well) in triplicate in 96-well plates (Falcon Co., Franklin Lakes, USA) and incubated for 1 h in a 5% CO2 atmosphere incubator at 310K. The supernatant was removed, and the compounds were added to the plate at concentrations from 10 µM to 50 µM. Next, the cultures were incubated for 48 h in a CO2 incubator at 310K. After incubation, the supernatant was removed and a resazurin solution (50 µM) was added to each well and incubated at 310K for 4 h. Furthermore, the fluorescence was measured using a wavelength of 560 nm for excitation and 590 nm for detection (Molecular Devices, Silicon Valley, USA). Results were expressed as the percentage of viable cells compared to the control cells treated with the highest DMSO dose used to dissolve the drugs. The 50% cytotoxic concentration (CC50) was calculated using GraphPad Prism 6.0 software (GraphPad Company, San Diego, CA, USA).
# [2] = tested on: L. amazonensis intracellular amastigotes; assay: Intracellular amastigotes assay in infected macrophages; assay type: cell-based, Leishmania amazonensis; settings: for IC50: L. amazonensis-infected murine peritoneal macrophages, 48 h of culture; for Selectivity Index (SI): SI = LD50/IC50 intracellular amastigotes
# Experimental: Peritoneal macrophages were obtained BALB/c mice with cold Roswell Park Memorial Institute (RPMI) 1640 medium (Sigma Aldrich, St. Louis, MO, USA) supplemented as above. The cell suspension was adjusted to 1 × 10^6 macrophage/mL and incubated in a LAB-TEK 8-chamber slide (Nunc, Roskilde, Denmark) at 310K and 5% CO2 for 1 h. Non-adherent cells were removed and stationary-phase L. amazonensis promastigotes were added at a 3:1 parasite/macrophage ratio. The cultures were incubated for a further 4 h, and free parasites were removed. The chambers were washed, and the monolayers were incubated with the compounds for 48 h. Infected macrophages incubated only in the culture medium were used as controls to compare with the infected treated macrophages. […] The cultures were fixed in methanol and stained with the hematological system Instant Prov (Newprov®, Curitiba, Brazil). The slides were examined by light microscopy, and the number of infected macrophages and the mean number of parasites per macrophage were determined in 100 cells counted. The experiments were performed twice in triplicate. The percentage of infected macrophages was calculated by dividing the number of infected macrophages by the total number of macrophages (infected and uninfected) counted on the slides, multiplied by 100. To determine the infection index, the percentage of infected macrophages was multiplied by the mean number of parasites per macrophage. The percentage inhibition of infection was calculated by multiplying the difference between the infection index of the control and the compound by 100 and dividing by the infection index (IF) of the control using the Equation (1):IF = % infected cells × amastigotes number/total number of macrophages(1) The IC50 ± SD (SD: standard deviation) values were obtained by a sigmoidal model using Origin 6.0 with statistical error limits up to 10%. All tests were conducted in duplicate for each concentration, and two independent assays were performed.
# [3] = tested on: L. amazonensis axenic amastigotes; assay: Axenic amastigotes assay (resazurin); assay type: cell-based; settings: Leishmania amazonensis, 72 h of culture, table title says 48 h
# Experimental: Promastigote forms of L. amazonensis (MHOM/BR/77/LTB0016) were grown to a stationary phase, washed once in phosphate buffer solution (PBS) (pH = 7.4) and adjusted to 5 × 10^6 parasites/mL in Schneider’s medium, supplemented with 20% fetal bovine solution (FBS) pH = 5.5 and maintained at 305K. After 5 days of cultivation, the rounded forms without free flagella were obtained and, after heat shock, were used in the appropriate assays. To evaluate the activity against axenic amastigotes, the parasites were incubated with increasing concentrations of the prototypes (diluted in DMSO) for 72 h at 305K. These assays were performed in triplicate in 96-well flat bottom plates (Falcon Co, Franklin Lakes, USA). The leishmanicidal activity was evaluated by adding 22 μl of resazurin to each well. After 4 h, the cell viability was measured as described above. Calculation of the IC50 values was determined in relation to the control by a sigmoidal model using GraphPad Prism 6.0 software.
# [4] = tested on: L. amazonensis promastigotes; assay: Promastigote assay (MTT); assay type: cell-based, Leishmania amazonensis; settings: after 48 h of culture (table title); for IC50: Leishmania amazonensis
# Experimental: Leishmania amazonensis (MHOM/BR/77/LTB0016) were regularly isolated from infected mice and maintained in culture as promastigotes through weekly passages in Schneider’s medium (Sigma Aldrich, St. Louis, MO, USA) supplemented with 10% (v/v) heat-inactivated fetal calf serum, penicillin (100 UI/mL), and streptomycin (100 µg/mL) at 299K. Parasites were maintained until the 10th passage. The Animal Ethics Committee of the Oswaldo Cruz Foundation (license number L026/2015) approved this study.
# Promastigotes of L. amazonensis (1 × 10^6 promastigotes/mL) in the 4th day on culture in the conditions described above were incubated with the chalcones serially diluted in culture medium (0.032% v/v DMSO at the highest concentration tested) on a 96-well cell culture plate (TPP™ test plate, Switzerland). The assayed concentrations ranged from 50 to 1.56 µM for all chalcone-thiosemicarbazones (5a–g) and for pentamidine (Sigma Aldrich, St. Louis, MO, USA). […] All compounds were analyzed in at least three experiments performed in triplicate. Pentamidine was used as the reference drug and diluted in the same concentrations used for 5a–g. The vehicle (DMSO) had no effect on the parasites.
# The antileishmanial activity was evaluated by adding 22 µL of 3-(4,5-dimethylthiazol-2-yl)-2-5diphenyltetrazolium bromide (MTT) at 5 mg/mL (Sigma Aldrich, St. Louis, MO, USA) to each well. After 2 h, 80 µL of DMSO was added and the optical density was determined at a wavelength of 570 nm in a microplate reader (µQuant Bio-Tek Instruments®, Winooski). The assays were carried out in triplicate in 96-well plates (Costar, New York, USA). The inhibition percentage was estimated by the comparison with the non-treated control. The values for the inhibitory concentration for 50% of the promastigotes (IC50) were calculated by a sigmoidal model.
# [5] = constant of substituent 4-X; cited from earlier work
# [6] = Leishmania amazonensis, Peritoneal macrophage, in Mus musculus, 48 h
SMILES,"Macrophages LD50 ([1]; murine peritoneal macrophages, 48 h of culture)","IC50 ([2]; Leishmania amazonensis, Peritoneal macrophage)",Selectivity Index (SI) [2],IC50 [3],IC50 [4],"Macrophages LD50 ([1]; BALB/c, mouse, 48 h, pH 7.2)",IC50 [2],"IC50 [2, 6]",Hammett constant σp [5],Hansh constant π (lipophilicity) [5],Taft constant Es [5],molecular refractivity MR [5],melting point,Promastigotes IC50 [4]
"N=C(N)c1ccc(OCCCCCOc2ccc(C(=N)N)cc2)cc1 [Pentamidine, pentamidine, reference compound]",25.85 ± 4.06 µM,11.1 ± 1.98 µM,2.32,12.3 ± 1.17 µM,4.9 ± 0.6 µM,,,,,,,,,
"NC(=S)NN=C(C=Cc1ccc(F)cc1)c1ccccc1 [Compound 5d, (1E,2E)-3-(4′-fluorphenyl)-1-phenylprop-2-en-1-one thiosemicarbazone]",,,,5.57 ± 1.15 µM,13.1 ± 1.85 µM,35.47 ± 1.38 µM,> 3.13 µM,3.4 to 5.95 µM,0.15,0.14,−0.46,0.10,,
"N#Cc1ccc(/C=C/C(=N\NC(N)=S)c2ccccc2)cc1 [Compound 5c, (1E,2E)-3-(4′-cyanophenyl)-1-phenylprop-2-en-1-one thiosemicarbazone]",,,,,,,,,0.71,−0.57,−0.51,0.63,195 to 196 °C,no significant activity
"Cc1ccc(/C=C/C(=N\NC(N)=S)c2ccccc2)cc1 [Compound 5b, (1E,2E)-3-(4′-methylphenyl)-1-phenylprop-2-en-1-one thiosemicarbazone]",,,9.47,7.08 ± 1.03 µM,14.8 ± 1.92 µM,56.35 ± 0.78 µM,,5.95 ± 0.61 µM,−0.14,0.56,−0.25,0.57,,
"NC(=S)N/N=C(\C=C\c1ccccc1)c1ccccc1 [Compound 5a, (1E,2E)-3-(phenyl)-1-phenylprop-2-en-1-one thiosemicarbazone]",,,,6.88 ± 1.09 µM,14.7 ± 0.31 µM,40.98 ± 1.12 µM,,,0.00,0.00,0.00,0.00,,
"NC(=S)N/N=C(\C=C\c1ccc(Br)cc1)c1ccccc1 [Compound 5f, (1E,2E)-3-(4′-bromophenyl)-1-phenylprop-2-en-1-one thiosemicarbazone]",,,,4.24 ± 1.07 µM,12.5 ± 0.99 µM,44.24 ± 4.21 µM,,,0.26,0.86,−1.16,0.89,,
"NC(=S)N/N=C(\C=C\c1ccc([N+](=O)[O-])cc1)c1ccccc1 [Compound 5g, (1E,2E)-3-(4′-nitrophenyl)-1-phenylprop-2-en-1-one thiosemicarbazone]",,,,,,,,,0.81,−0.28,−1.01,0.74,188 to 190 °C,no significant activity
